# In patent publication US9994594B2, “Inhibitors of arginase and their therapeutic applications” (MARS, INCORPORATED, priority 2010, dated 2018):
# Counter-ions that a name gives are not always drawn.
# Legend:
# human arginase I (ARG I) = target: T1, human arginase I (ARG I) (Homo sapiens, UniProt P05089); experiment: Inhibition of arginase I, spectrophotometric urea assay at 530 nm; assay type: biochemical; settings: Formula II compounds, Table 2-A; read-out: Potency (ARG I)
# T1 sequence (P05089 1-322): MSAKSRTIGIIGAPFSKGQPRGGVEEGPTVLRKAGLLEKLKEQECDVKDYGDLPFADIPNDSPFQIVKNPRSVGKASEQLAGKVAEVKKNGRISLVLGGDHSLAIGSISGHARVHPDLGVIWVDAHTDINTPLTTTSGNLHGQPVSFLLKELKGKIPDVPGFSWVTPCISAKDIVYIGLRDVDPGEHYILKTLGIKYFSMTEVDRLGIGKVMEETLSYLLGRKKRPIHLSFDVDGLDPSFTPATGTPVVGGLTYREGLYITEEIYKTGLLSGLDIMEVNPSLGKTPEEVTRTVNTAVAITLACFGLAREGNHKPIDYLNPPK
# Procedure: (§1) The assay established the concentration of inhibitor that is required to reduce arginase activity by 50% (IC50).
# (§2) Inhibition of arginase I (ARG I) and arginase II (ARG II) by Formula I and Formula II compounds is followed spectrophotometrically at 530 nm. The compound to be tested is dissolved in DMSO at an initial concentration 50-fold greater than its final concentration in the cuvette. 10 μl of the stock solution is diluted in 90 μl of the assay buffer that comprises 0.1M sodium phosphate buffer containing 130 mM NaCl, pH 7.4, to which is added ovalbumin (OVA) at a concentration of 1 mg/ml. Solutions of arginase I and II are prepared in 100 mM sodium phosphate buffer, pH 7.4 containing 1 mg/ml of OVA to give an arginase stock solution at a final concentration of 100 ng/ml.
# (§3) To each well of a 96-well microtiter plate is add 40 μl of enzyme, 10 μl of an inventive compound and 10 μl of enzyme substrate (L-arginine+manganese sulfate). For wells that are used as positive controls, only the enzyme and its substrate are added, while wells used as negative controls contain only manganese sulfate.
# (§4) After incubating the microtiter plate at 37° C. for 60 minutes, 150 μl of a urea reagent obtained by combining equal proportions (1:1) of reagents A and B is added to each well of the microtiter plate to stop the reaction. The urea reagent is made just before use by combining Reagent A (10 mM o-phthaldialdehyde, and 0.4% polyoxyethylene (23) lauryl ether (w/v) in 1.8 M sulfuric acid) with Reagent B (1.3 mM primaquine diphosphate, 0.4% polyoxyethylene (23) lauryl ether (w/v), 130 mM boric acid in 3.6 M sulfuric acid). After quenching the reaction mixture, the microtiter plate is allowed to stand for an additional 10 minutes at room temperature to allow color development. The inhibition of arginase is computed by measuring the optical density (OD) of the reaction mixture at 530 nm and normalizing the OD value to percent inhibition observed in the control. The normalized OD is then used to generate a dose-response curve by plotting the normalized OD values against log [concentration] and using regression analysis to compute the IC50 values.
# arginase II (ARG II) = target: T2, arginase II (ARG II) (Homo sapiens, UniProt P78540); experiment: Inhibition of arginase II, spectrophotometric urea assay at 530 nm; assay type: biochemical; settings: Formula II compounds, Table 2-A; read-out: Potency (ARG)
# T2 sequence (P78540 23-354): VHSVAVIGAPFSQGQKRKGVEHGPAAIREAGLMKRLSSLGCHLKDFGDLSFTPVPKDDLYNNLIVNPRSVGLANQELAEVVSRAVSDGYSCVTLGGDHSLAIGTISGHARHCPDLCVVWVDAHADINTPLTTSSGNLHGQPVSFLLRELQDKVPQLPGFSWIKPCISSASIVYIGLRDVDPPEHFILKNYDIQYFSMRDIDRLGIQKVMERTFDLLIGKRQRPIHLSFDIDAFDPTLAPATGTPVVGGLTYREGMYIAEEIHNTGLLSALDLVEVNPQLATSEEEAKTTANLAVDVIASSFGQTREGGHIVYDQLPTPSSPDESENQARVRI
# Procedure: as §1, §2, §3, §4
SMILES,IC50 (human arginase I (ARG I)),IC50 (arginase II (ARG II))
"N[C@@H]1CC[C@H]([C@](N)(CCCCB(O)O)C(=O)O)C1 [15-A, (R)-2-amino-2-((1S,3R)-3-aminocyclopentyl)-6-boronohexanoic acid dihydrochloride]",0.1 to 250 nM,0.1 to 250 nM
"N[C@H]1CC[C@H]([C@](N)(CCCCB(O)O)C(=O)O)C1 [16-A, (R)-2-amino-2-((1S,3S)-3-aminocyclopentyl)-6-boronohexanoic acid dihydrochloride]",0.1 to 250 nM,0.1 to 250 nM
"N[C@H]1CC[C@@H]([C@@](N)(CCCCB(O)O)C(=O)O)C1 [17-A, (S)-2-amino-2-((1R,3S)-3-aminocyclopentyl)-6-boronohexanoic acid dihydrochloride]",0.1 to 250 nM,0.1 to 250 nM
"NC(CCCCB(O)O)(C(=O)O)C1CNC1 (stereo not drawn) [18-A, 2-amino-2-(azetidin-3-yl)-6-boronohexanoic acid dihydrochloride]",2000 to 5000 nM,2000 to 5000 nM
"NC(CCCCB(O)O)(C(=O)O)C1CNCCO1 (stereo not drawn) [19-A, 2-amino-6-borono-2-(morpholin-2-yl)hexanoic acid dihydrochloride]",2000 to 5000 nM,2000 to 5000 nM
"NC1CCC(C(N)(CCCCB(O)O)C(=O)O)CC1 (stereo not drawn) [20-A, 2-amino-2-(4-aminocyclohexyl)-6-boronohexanoic acid dihydrochloride]",251 to 1000 nM,251 to 1000 nM
"NC(CCCCB(O)O)(C(=O)O)C1CCN(C2CCCCC2)CC1 (stereo not drawn) [23-A, 2-amino-6-borono-2-(1-cyclohexylpiperidin-4-yl)hexanoic acid dihydrochloride]",251 to 1000 nM,251 to 1000 nM
"NC(CCCCB(O)O)(C(=O)O)C1CCN(C2CCCC2)CC1 (stereo not drawn) [24-A, 2-amino-6-borono-2-(1-cyclopentylpiperidin-4-yl)hexanoic acid dihydrochloride]",251 to 1000 nM,251 to 1000 nM
"CC1(C)CCC(N2CCC(C(N)(CCCCB(O)O)C(=O)O)CC2)CC1 (stereo not drawn) [25-A, 2-amino-6-borono-2-[1-(4,4-dimethylcyclohexyl)piperidin-4-yl]hexanoic acid dihydrochloride]",0.1 to 250 nM,251 to 1000 nM
"NC(CCCCB(O)O)(C(=O)O)C1CCN(C(=O)c2ccc(Cl)cc2)CC1 (stereo not drawn) [26-A, 2-amino-6-borono-2-[1-(4-chlorobenzoyl)piperidin-4-yl]hexanoic acid hydrochloride]",2000 to 5000 nM,2000 to 5000 nM
"CC(=O)N1CCC(C(N)(CCCCB(O)O)C(=O)O)CC1 (stereo not drawn) [27-A, 2-amino-6-borono-2-[1-acetylpiperidin-4-yl]hexanoic acid hydrochloride]",2000 to 5000 nM,2000 to 5000 nM
"NC(CCCCB(O)O)(C(=O)O)C1CCN(C(=O)Cc2ccc(F)cc2)CC1 (stereo not drawn) [28-A, 2-amino-6-borono-2-{1-[(4-fluorophenyl)acetyl]-piperidin-4-yl}hexanoic acid hydrochloride]",2000 to 5000 nM,2000 to 5000 nM
"NC(CCCCB(O)O)(C(=O)O)C1CCN(C(=O)Cc2ccc(Cl)cc2)CC1 (stereo not drawn) [29-A, 2-amino-6-borono-2-{1-[(4-chlorophenyl)acetyl]-piperidin-4-yl}hexanoic acid hydrochloride]",1000 to 2000 nM,> 5000 nM
"NC(CCCCB(O)O)(C(=O)O)C1CCN(C(=O)c2ccccc2)CC1 (stereo not drawn) [30-A, 2-amino-6-borono-2-[1-benzoylpiperidin-4-yl]hexanoic acid hydrochloride]",2000 to 5000 nM,2000 to 5000 nM
"NC(CCCCB(O)O)(C(=O)O)C1CCN(C(=O)NCc2ccc(Cl)cc2)CC1 (stereo not drawn) [31-A, 2-amino-6-borono-2-{1-[(4-chlorobenzyl)carbamoyl]-piperidin-4-yl}hexanoic acid hydrochloride]",1000 to 2000 nM,2000 to 5000 nM
"NC(CCCCB(O)O)(C(=O)O)C1CCN(C(=O)Nc2ccc(Cl)cc2)CC1 (stereo not drawn) [32-A, 2-amino-6-borono-2-{1-[(4-chlorophenyl)-carbamoyl]piperidin-4-yl}hexanoic acid hydrochloride]",251 to 1000 nM,251 to 1000 nM
"NC(CCCCB(O)O)(C(=O)O)C1CCN(C(=O)NCCc2ccc(F)cc2)CC1 (stereo not drawn) [33-A, 2-amino-6-borono-2-(1-{[2-(4-fluorophenyl)ethyl]-carbamoyl}piperidin-4-yl)hexanoic acid hydrochloride]",1000 to 2000 nM,1000 to 2000 nM
"NC(CCCCB(O)O)(C(=O)O)C1CCN(C(=S)Nc2ccc(Cl)cc2)CC1 (stereo not drawn) [34-A, 2-amino-6-borono-2-(1-{[(4-chlorophenyl)amino]carbonothioyl}piperidin-4-yl)hexanoic acid hydrochloride]",251 to 1000 nM,251 to 1000 nM
"NC(CCCCB(O)O)(C(=O)O)C1CCN(C(=S)Nc2ccc(Cl)cc2)C1 [35-A, 2-amino-6-borono-2-((S)-1-(4-chlorophenylcarbamothioyl)-pyrrolidin-3-yl)hexanoic acid hydrochloride]",251 to 1000 nM,251 to 1000 nM
"NC(CCCCB(O)O)(C(=O)O)C1CCN(C(=O)Nc2ccc(Cl)cc2)C1 [36-A, 2-amino-6-borono-2-((S)-1-(4-chlorophenylcarbamoyl)pyrrolidin-3-yl)hexanoic acid hydrochloride]",251 to 1000 nM,2000 to 5000 nM
"Cc1ccc(CN2CC[C@@H](C(N)(CCCCB(O)O)C(=O)O)C2)cc1 (stereo partly drawn) [Example 39-A, 2-Amino-6-borono-2-((R)-1-(4-methylbenzyl)pyrrolidin-3-yl)hexanoic acid dihydrochloride]",251 to 1000 nM,251 to 1000 nM
"NC(CCCCB(O)O)(C(=O)O)[C@@H]1CCN(S(=O)(=O)c2ccccc2[N+](=O)[O-])C1 (stereo partly drawn) [Example 40-A, 2-amino-6-borono-2-((R)-1-(2-nitrophenylsulfonyl)pyrrolidin-3-yl)hexanoic acid]",251 to 1000 nM,251 to 1000 nM
"NC(CCCCB(O)O)(C(=O)O)C1CCN(CCc2ccccc2)CC1 (stereo not drawn) [Example 41-A, 2-amino-6-borono-2-(1-phenethylpiperidin-4-yl)hexanoic acid]",251 to 1000 nM,0.1 to 250 nM
"NC(CCCCB(O)O)(C(=O)O)C1CCN(C(=O)Nc2ccc(Cl)c(Cl)c2)CC1 (stereo not drawn) [Example 42-A, 2-amino-6-borono-2-(1-(3,4-dichlorophenylcarbamoyl)piperidin-4-yl)hexanoic acid]",251 to 1000 nM,1000 to 2000 nM
"NC(CCCCB(O)O)(C(=O)O)C1CCN(C(=S)NCc2ccc(Cl)cc2)CC1 (stereo not drawn) [Example 43-A, 2-amino-6-borono-2-(1-(4-chlorobenzylcarbamothioyl)piperidin-4-yl)hexanoic acid]",251 to 1000 nM,1000 to 2000 nM
"Cc1ccc(NC(=S)N2CCC(C(N)(CCCCB(O)O)C(=O)O)CC2)cc1Cl (stereo not drawn) [Example 44-A, 2-amino-6-borono-2-(1-(3-chloro-4-methylphenylcarbamothioyl)piperidin-4-yl)hexanoic acid]",251 to 1000 nM,1000 to 2000 nM
"NC(CCCCB(O)O)(C(=O)O)C1CCN(C(=S)Nc2cccc3ccccc23)CC1 (stereo not drawn) [Example 45-A, 2-amino-6-borono-2-(1-(naphthalen-1-ylcarbamothioyl)piperidin-4-yl)hexanoic acid]",251 to 1000 nM,1000 to 2000 nM
"NC(CCCCB(O)O)(C(=O)O)C1CCN(CCCc2ccc(Cl)cc2)CC1 (stereo not drawn) [Example 46-A, 2-amino-6-borono-2-(1-(3-(4-chlorophenyl)propyl)piperidin-4-yl)hexanoic acid]",0.1 to 250 nM,0.1 to 250 nM
"NC(CCCCB(O)O)(C(=O)O)C1CCN(CCc2ccc(Cl)cc2Cl)CC1 (stereo not drawn) [Example 47-A, 2-amino-6-borono-2-(1-(2,4-dichlorophenethyl)piperidin-4-yl)hexanoic acid]",0.1 to 250 nM,251 to 1000 nM
"NC(CCCCB(O)O)(C(=O)O)C1CCN(Cc2ccc(F)c(F)c2)CC1 (stereo not drawn) [Example 48-A, 2-amino-6-borono-2-(1-(3,4-difluorobenzyl)piperidin-4-yl)hexanoic acid]",0.1 to 250 nM,251 to 1000 nM
